Source: ChEMBL document CHEMBL1149001, “Phebalosin from the bark of Micromelum minutum” (J Nat Prod, 1986)
Converted amounts (≈) assume the structure as drawn.

Tests used:
[1] = test system: Artemia; assay: Toxicity in brine shrimp; format: organism-based; details: in vivo
[2] = Cytotoxicity against human 9KB cells; format: functional; details: read-out: ED50 (the source's name)
[3] = Cytotoxicity against mouse 9PS cells; format: functional; details: read-out: ED50 (the source's name)
[4] = test system: Agrobacterium tumefaciens; assay: Antitumor activity against Agrobacterium tumefaciens-induced crown gall tumors assessed as inhibition of tumor development in potato by crown gall tumor potato disk test; format: functional; design: scale not given: the % may be the effect or the level left

Structure (SMILES): C=C(C)[C@H]1O[C@@H]1c1c(OC)ccc2ccc(=O)oc12 [PHEBALOSIN]
- LC50 [1]: 47 ppm
- EC50 [2]: > 20 µg/mL
- EC50 [3]: 27 µg/mL (≈ 105 µM)
- Activity [4]: -70%
